Source: ChEMBL document CHEMBL1201862, “PubChem BioAssay data set” (2004)
Where a name gives a salt, the structure may show the parent alone.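 Values below derive from 48-hour exposures of cells grown in 96-well plates, with endpoints linearly interpolated between the two concentrations bracketing the appropriate inhibition level. The concentration for 50% growth inhibition is given as GI50.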 Activity calls are given as the source filed them. Rule as the data show it: active = GI50 up to about 1.1 µM and inactive = higher.

Experiments:
Test in all cases: NCI anticancer screen, dose series, 48 h
786-0 = tested on: 786-0
A549 = tested on: A549
ACHN = tested on: ACHN
BT-549 = tested on: BT-549
CAKI-1 = tested on: CAKI-1
CCRF-CEM = tested on: CCRF-CEM
COLO 205 = tested on: COLO 205
DU-145 = tested on: DU-145
EKVX = tested on: EKVX
HCC 2998 = tested on: HCC 2998
HCT-116 = tested on: HCT-116
HCT-15 = tested on: HCT-15
HL-60 = tested on: HL-60
HOP-62 = tested on: HOP-62
HT-29 = tested on: HT-29
Hs-578T = tested on: Hs-578T
IGROV-1 = tested on: IGROV-1
K562 = tested on: K562
KM12 = tested on: KM12
LOX IMVI = tested on: LOX IMVI
M14 = tested on: M14
MCF7 = tested on: MCF7
MDA-MB-231 = tested on: MDA-MB-231
MDA-N = tested on: MDA-N
MOLT-4 = tested on: MOLT-4
Malme-3M = tested on: Malme-3M
NCI-H226 = tested on: NCI-H226
NCI-H23 = tested on: NCI-H23
NCI-H460 = tested on: NCI-H460
NCI-H522 = tested on: NCI-H522
NCI/ADR-RES = tested on: NCI/ADR-RES
OVCAR-4 = tested on: OVCAR-4
OVCAR-5 = tested on: OVCAR-5
OVCAR-8 = tested on: OVCAR-8
PC-3 = tested on: PC-3
RXF 393 = tested on: RXF 393
SF-268 = tested on: SF-268
SF-295 = tested on: SF-295
SF-539 = tested on: SF-539
SK-MEL-28 = tested on: SK-MEL-28
SK-MEL-2 = tested on: SK-MEL-2
SK-MEL-5 = tested on: SK-MEL-5
SK-OV-3 = tested on: SK-OV-3
SN12C = tested on: SN12C
SNB-19 = tested on: SNB-19
SNB-75 = tested on: SNB-75
SR = tested on: SR
SW-620 = tested on: SW-620
T47D = tested on: T47D
TK-10 = tested on: TK-10
U-251 = tested on: U-251
UACC-257 = tested on: UACC-257
UACC-62 = tested on: UACC-62
UO-31 = tested on: UO-31
A498 = tested on: A498
HOP-92 = tested on: HOP-92
MDA-MB-435 = tested on: MDA-MB-435
OVCAR-3 = tested on: OVCAR-3
RPMI-8226 = tested on: RPMI-8226

Measured: GI50

O=C1CCCC2C(O)CCC[C@H]12 (stereo not given in full)
> 100 µM: HCT-15
inactive: 786-0 > 100 µM | A549 > 100 µM | ACHN > 100 µM | BT-549 > 100 µM | CAKI-1 > 100 µM | CCRF-CEM > 100 µM | COLO 205 > 100 µM | DU-145 > 100 µM | EKVX > 100 µM | HCC 2998 > 100 µM | HCT-116 > 100 µM | HL-60 > 100 µM | HOP-62 > 100 µM | HT-29 > 100 µM | Hs-578T > 100 µM | IGROV-1 > 100 µM | K562 > 100 µM | KM12 > 100 µM | LOX IMVI > 100 µM | M14 > 100 µM | MCF7 > 100 µM | MDA-MB-231 > 100 µM | MDA-N > 100 µM | MOLT-4 > 100 µM | Malme-3M > 100 µM | NCI-H226 > 100 µM | NCI-H23 > 100 µM | NCI-H460 > 100 µM | NCI-H522 > 100 µM | NCI/ADR-RES > 100 µM | OVCAR-4 > 100 µM | OVCAR-5 > 100 µM | OVCAR-8 > 100 µM | PC-3 > 100 µM | RXF 393 11.4 µM | SF-268 > 100 µM | SF-295 > 100 µM | SF-539 > 100 µM | SK-MEL-28 > 100 µM | SK-MEL-2 > 100 µM | SK-MEL-5 > 100 µM | SK-OV-3 > 100 µM | SN12C > 100 µM | SNB-19 > 100 µM | SNB-75 > 100 µM | SR > 100 µM | SW-620 > 100 µM | T47D > 100 µM | TK-10 > 100 µM | U-251 > 100 µM | UACC-257 > 100 µM | UACC-62 > 100 µM | UO-31 51.1 µM

Cc1oncc1/N=C1\C=C(O)C(=O)c2ccccc21
3.72 µM: HCT-15
inactive: 786-0 18.2 µM | A498 13.2 µM | A549 3.9 µM | ACHN 4.82 µM | BT-549 12.4 µM | CAKI-1 9.18 µM | CCRF-CEM 3.38 µM | COLO 205 17 µM | DU-145 15 µM | EKVX 14.6 µM | HCC 2998 16.8 µM | HCT-116 3.16 µM | HL-60 2.26 µM | HOP-62 17.4 µM | HOP-92 10.4 µM | HT-29 3.65 µM | Hs-578T 9.12 µM | IGROV-1 3.57 µM | K562 6.14 µM | KM12 6.21 µM | LOX IMVI 2.73 µM | M14 6.1 µM | MCF7 2.68 µM | MDA-MB-231 8.47 µM | MDA-MB-435 1.92 µM | MOLT-4 2.5 µM | Malme-3M 3.45 µM | NCI-H226 19 µM | NCI-H23 3.79 µM | NCI-H460 3.91 µM | NCI-H522 5.41 µM | NCI/ADR-RES 3.85 µM | OVCAR-3 1.9 µM | OVCAR-4 3.62 µM | OVCAR-5 13.5 µM | OVCAR-8 2.53 µM | PC-3 2.42 µM | RPMI-8226 7.64 µM | RXF 393 13.2 µM | SF-268 10.5 µM | SF-295 7.66 µM | SF-539 4.65 µM | SK-MEL-28 15.4 µM | SK-MEL-5 1.95 µM | SK-OV-3 15.7 µM | SN12C 5.73 µM | SNB-19 16.3 µM | SNB-75 13.1 µM | SR 4.88 µM | SW-620 4.4 µM | T47D 3.3 µM | TK-10 25.1 µM | U-251 5.37 µM | UACC-257 2.77 µM | UACC-62 2.99 µM | UO-31 14.1 µM

CC/C(=C(\c1ccccc1)c1ccc(OCCN(C)C)cc1)c1ccccc1 [TAMOXIFEN CITRATE]
inactive: 786-0 4.43 µM | A498 4.38 µM | A549 5.79 µM | ACHN 6.1 µM | BT-549 6.07 µM | CCRF-CEM 4.75 µM | COLO 205 4.1 µM | EKVX 7.03 µM | HCC 2998 3.81 µM | HCT-116 4.8 µM | HOP-62 5.12 µM | HOP-92 4.57 µM | HT-29 3.44 µM | Hs-578T 5.58 µM | IGROV-1 5.75 µM | K562 3.3 µM | LOX IMVI 3.99 µM | M14 4.42 µM | MCF7 1.65 µM | MDA-MB-231 4.97 µM | MDA-N 4.68 µM | MOLT-4 3.4 µM | NCI-H226 6.34 µM | NCI-H23 5.93 µM | NCI/ADR-RES 5.28 µM | OVCAR-3 5 µM | OVCAR-4 5.6 µM | OVCAR-8 6.32 µM | PC-3 4.18 µM | RXF 393 3.87 µM | SK-MEL-2 5.45 µM | SK-MEL-5 4.17 µM | SR 4.86 µM | T47D 3.05 µM | TK-10 5.18 µM | UACC-257 4.81 µM | UACC-62 5.26 µM | UO-31 4.14 µM
4.67 µM: HCT-15
